Measurements as given in patent publication US20210293825A1, “METHODS FOR PRECISION THERAPEUTIC TARGETING OF HUMAN CANCER CELL MOTILITY AND KITS THEREOF” (UNITED STATES GOVERNMENT AS REPRESENTED BY THE DEPARTMENT …, priority 2018, published 2021).

Tests used:
[1] = target: T1, client protein binding to CDC37/HSP90β heterocomplexes (Homo sapiens, UniProt P08238+Q16543); assay: Modified LUMIER assay; assay type: cell-based
T1 construct: expressed in transfected cells; host or cells: HEK293T
Method: (§1) HEK293T cells were transfected with 1 of 420 different protein kinases, treated with 10 μM KBU2046 (N=5 replicates) or vehicle control (N=5) for three days, and LUMIER assays performed. The N=17 kinases that gave significant findings (Student's t-test <0.05) in the same direction in each of two separate experiments are depicted. Each separate treatment and kinase condition in each of two separate experiments was conducted in replicates of N=5. […] FIGS. 6c and 6d show the results of the wound healing assay. PC3 cells were transfected with siRNA targeting RAF1 (si-Raf1) or non-targeting siRNA (si-control), treated with KBU2046 or vehicle as above, and RAF1 protein measured by Western blot (c) and effects upon wound healing measured (d). […] Purified recombinant HSP90β, CDC37, and RAF1 were combined with KBU2046, as indicated, incubated in an in vitro kinase assay for the indicated times, and Western blot for RAF1-Ser^338 phosphorylation performed. FIGS. 6f and 6g show the effect on HSP90β/CDC37 heterocomplex formation and function in vitro. Purified recombinant HSP90β, CDC37, RAF1, SGK3 or MAP3K6 were combined and treated with KBU2046 or vehicle control, as indicated, incubated in an in vitro kinase assay for the indicated times, and Western blot performed, as denoted. Experiments were repeated at separate times at least once, with similar results.
(§2) To examine whether this is associated with an altered signature of bound client kinase proteins, a modified LUMIER assay (Taipale, M. et al., Cell 150, 987-1001 (2012)) was performed to detect KBU2046-induced changes in client protein binding to CDC37/HSP90β heterocomplexes in intact cells. […] These findings are in contrast to classical inhibitors of HSP90 function which have been shown, through this same assay, to affect the binding of the majority client kinase proteins (Taipale, M. et al., Cell 150, 987-1001 (2012)).
(§3) LUMIER assay. The LUMIER assay was performed as described (Taipale, M. et al., Cell 150, 987-1001 (2012)).
(§4) Experiments had N=5 vehicle treated control plus N=5 KBU2046 treated separate wells of cells. Those yielding a t-test p value <0.05 in experiment #1, or those whose values were at or below baseline, were repeated in experiment #2. […] Of 420 kinase proteins tested, 17 (4%) met these criteria (FIG. 6a). For these 17 kinases, the experiment was repeated except that HEK293T cells were treated with TGFβ for the last 24 hrs of the 3 day incubation (FIG. 6b).

[2] = test system: client protein binding to CDC37/HSP90β heterocomplexes; assay: Modified LUMIER assay; assay type: cell-based
Method: as §1, §2, §3, §4

human prostate cells = assay: Three day cell growth inhibition, human prostate cells; assay type: cell-based; settings: 3 days growth inhibition
Text: FIG. 1a is a schematic flow of probe synthesis and development strategy. […] Values are mean±SEM of a single experiment in replicates of N=4, with similar findings in multiple separate experiments (also N=4). […] Values are mean±SEM of a single experiment in replicates of N=24, with similar findings in a separate experiment (also N=24). *Denotes Student's t test P value <0.05, compared to controls. […] Values are mean±SEM from N>2 separate experiments, each in replicates of N=3. […] Values are the mean±SD number of total, CFU-GM, CFU-GEMM or BFU-E colonies at 14 days after treatment with KBU2046, from a single experiment in replicates of N=2. […] Values are the mean±SD of a single experiment, with similar results seen in a separate experiment, both in replicates of N=2.
Assays were in replicates of N=3, and were repeated.

PC3-luc cells = assay: Prostate cancer intracardiac injection bone metastasis model; assay type: in vivo, athymic mice
Method: Athymic mice were given intracardiac (IC) injections of PC3-luc cells on day 0 under ultrasound guidance, and underwent weekly IVIS imaging starting seven days post injection. Cohorts of N=20 control, N=20 Pre (treatment from 3 days prior to IC injection through end of experiment), N=10 Pre7Stop (treatment from 3 days prior to IC injection through 7 days post IC injection) and N=10 Post treatment (treatment from 3 days post-IC injection through end of experiment) mice were dosed with 80 mg/kg KBU2046 daily by oral gavage and mock treated with vehicle all other times. FIG. 3c depicts whole body and FIG. 3b depicts mandible flux as determined from weekly IVIS imaging. […] Arrows denote areas of bone destruction in controls, and corresponding areas in the Pre mouse. Student's t test (b-c) and Fisher's exact test (d) P values between the denoted cohorts are shown.
Prostate cancer: intracardiac (IC) injection. IC injection of 4.0×10^5 PC3-Luc cells into male 6-8 week old athymic mice with IVIS imaging was performed as described (Chu, K. et al., Mol Cancer Res 6, 1259-67 (2008)), and was done so under ultrasound guidance (FIG. 15). Mice were treated pre- and/or post-IC injection, as indicated. The pretreatment cohort emulates a metastasis naïve model wherein cell motility is required in order for cells to invade into a distant organ, in this case the jaw bone, for which this model is widely used. If KBU2046 were inhibiting cell motility, then in this model it would act to inhibit metastasis formation. In contrast, with the post implantation cohort, cells have already completed invasion into the jaw bone, and distant metastasis have been established. […] IVIS imaging was performed 30 minutes after IC injection to confirm systemic distribution of cells, and thereafter weekly for 4 weeks starting seven days post injection, allowing real time tracking of metastasis development and growth. Computed Tomograpgy (CT) (Inveon, Seimens) radiographic imaging was performed on some mice, as indicated, and resultant images analyzed in a blinded fashion using Inveon Research Workplace 4.2 visualization/analysis software and ImageJ. […] Experimental groups were randomly assigned to cages prior to the initiation of the study. CT images were analyzed in a blinded fashion to determine total bone loss using both the Invenon Research Workplace 4.2 visualization/analysis software and ImageJ. Specifically, to assess bone loss in an unbiased manor, an operator randomly loaded images into the system and blocked out identifying information prior to analysis by two separate blinded individuals.

NCI 60 cell line panel = NCI 60 cell line panel screening; assay type: cell-based; settings: initial screening per DTP protocol
Text: KBU2046 was submitted to the Developmental Therapeutics Program (DTP) of the US National Cancer Institute (NCI), underwent initial screening across the NCI 60 cell line panel per DTP protocol (Shoemaker, R. H., Nat Rev Cancer 6, 813-23 (2006)) and the resultant COMPARE diagram is depicted herein.

[3] = Pre cohort, 80 mg/kg daily oral gavage

T1 sequence (P08238 2-724): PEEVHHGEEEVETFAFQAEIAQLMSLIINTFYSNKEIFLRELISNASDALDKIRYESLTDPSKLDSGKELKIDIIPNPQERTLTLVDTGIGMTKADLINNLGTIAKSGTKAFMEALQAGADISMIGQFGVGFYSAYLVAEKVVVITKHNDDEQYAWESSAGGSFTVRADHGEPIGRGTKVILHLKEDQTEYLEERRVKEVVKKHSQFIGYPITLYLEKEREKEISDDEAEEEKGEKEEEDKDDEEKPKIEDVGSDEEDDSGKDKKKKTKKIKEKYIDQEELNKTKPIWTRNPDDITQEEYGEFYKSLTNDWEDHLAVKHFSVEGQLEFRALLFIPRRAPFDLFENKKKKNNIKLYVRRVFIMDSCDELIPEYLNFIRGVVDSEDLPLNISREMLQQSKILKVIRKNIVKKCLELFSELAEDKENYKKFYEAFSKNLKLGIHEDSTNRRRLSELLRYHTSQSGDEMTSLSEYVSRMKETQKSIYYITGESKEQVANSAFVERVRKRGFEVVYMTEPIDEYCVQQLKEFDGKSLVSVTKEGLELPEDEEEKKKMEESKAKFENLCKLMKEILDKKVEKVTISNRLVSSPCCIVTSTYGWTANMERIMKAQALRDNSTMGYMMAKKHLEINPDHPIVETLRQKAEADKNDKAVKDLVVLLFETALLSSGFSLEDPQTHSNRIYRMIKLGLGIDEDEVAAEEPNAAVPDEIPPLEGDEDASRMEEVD
T1 sequence (Q16543 whole entry): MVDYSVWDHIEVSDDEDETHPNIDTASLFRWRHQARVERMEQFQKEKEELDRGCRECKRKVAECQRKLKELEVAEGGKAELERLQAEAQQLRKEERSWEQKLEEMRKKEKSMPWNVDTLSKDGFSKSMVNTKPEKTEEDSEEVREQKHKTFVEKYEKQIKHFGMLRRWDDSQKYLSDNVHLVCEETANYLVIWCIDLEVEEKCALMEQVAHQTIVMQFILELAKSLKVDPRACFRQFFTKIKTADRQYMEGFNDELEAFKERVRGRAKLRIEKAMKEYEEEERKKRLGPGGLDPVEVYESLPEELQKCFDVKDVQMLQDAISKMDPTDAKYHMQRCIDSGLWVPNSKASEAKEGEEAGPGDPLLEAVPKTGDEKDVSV

O=C1c2ccccc2OCC1c1ccc(F)cc1 (racemic) [KBU2046, (±)-3(4-fluorophenyl)chroman-4-one]
RAF1 binding to complexes ([1]; TGFβ treated cells): decreased binding
RIPKI binding to complexes ([1]; TGFβ treated cells): decreased
SGK3 binding to complexes ([1]; TGFβ treated cells): increased
MAP3K6 binding to complexes ([1]; intact cells): increases MAP3K6 binding to complexes
number of kinases with decreased binding ([2]; 10 μM, 3 days): 7
number of kinases with increased binding ([2]; 10 μM, 3 days): 10
share of kinases whose binding was significantly changed ([2]; of 420 kinase proteins): 4%
number of kinases whose binding was significantly changed ([2]; of 420 kinase proteins, 10 μM, 3 days): 17
toxicity to human prostate cells (human prostate cells): not toxic
metastasis to the total body and to the jaw (PC3-luc cells; Post cohort, treatment from 3 days post-IC injection): do not differ from control mice
jaw metastasis (PC3-luc cells; Pre7Stop cohort): jaw metastasis is significantly decreased compared to control
total body metastasis (PC3-luc cells; Pre7Stop cohort, compared to control and Post cohorts): total body metastasis is significantly decreased
metastasis to the mandible (PC3-luc cells; [3]): decreased metastasis to the mandible
total metastatic burden (whole body flux) (PC3-luc cells; [3]): significant decrease in total metastatic burden
destruction of bone (mandible, Computed Tomography) (PC3-luc cells; Pre cohort, week 4): decreased destruction of bone
cell toxicity (NCI 60 cell line panel): minimal-to-no cell toxicity
